Measured values as given in ChEMBL document CHEMBL4622972 (J Med Chem, 2020).

How the values were obtained:
[1] = 1-octanol-aqueous buffer distribution coefficient, log D of the compound at pH 7.4; assay type: physicochemical
[2] = Apparent permeability across apical to basolateral side in human Caco2 cells at pH 7.4; assay type: ADME, cell-based; conditions: Caco-2, pH 7.4
[3] = Apparent permeability across basolateral to apical side in human Caco2 cells at pH 7.4; assay type: ADME, cell-based; conditions: Caco-2, pH 7.4
[4] = Volume of distribution at steady state in iv dosed Harlan-Han Wistar rat; assay type: ADME, organism-based; conditions: in vivo, read-out: Vdss
[5] = Oral bioavailability in Harlan-Han Wistar rat; assay type: ADME, organism-based; conditions: in vivo
[6] = Volume of distribution at steady state in iv dosed dog; assay type: ADME, organism-based, Canis lupus familiaris; conditions: in vivo, read-out: Vdss
[7] = Oral bioavailability in dog; assay type: ADME, organism-based, Canis lupus familiaris; conditions: in vivo
[8] = Drug absorption in po dosed hamster; assay type: ADME, organism-based; conditions: cricetinae, in vivo
[9] = Drug absorption in po dosed mouse; assay type: ADME, organism-based; conditions: in vivo
[10] = Drug absorption in po dosed rat; assay type: ADME, organism-based; conditions: in vivo
[11] = Apparent permeability in human jejunum; assay type: ADME, tissue-based
[12] = Apparent permeability in rat jejunum; assay type: ADME, tissue-based

Question: Which logD [1] does the source give for `Cc1ccc2[nH]c(C(=O)N[C@H]3CN(S(=O)(=O)c4ccnnc4)C[C@@H]3C(=O)NCCN(C)C)cc2c1` here?
Answer: The logD was 0.7.

Question: Which logD [1] does the source give for `Cc1ccc2[nH]c(C(=O)N[C@H]3CN(S(=O)(=O)c4ccccc4)C[C@@H]3C(=O)NC[C@@H]3CCCN3C)cc2c1` here?
Answer: The logD was 2.3.

Question: And the Papp A→B [2]?
Answer: The Papp A→B was 0.24 ×10⁻⁶ cm/s.

Question: What about the Papp B→A [3] of the same compound?
Answer: The Papp B→A was 19.3 ×10⁻⁶ cm/s.

Question: With `Cc1ccc2[nH]c(C(=O)N[C@H]3CN(S(=O)(=O)c4ccnc(C)c4)C[C@@H]3C(=O)NCCN(C)C)cc2c1` as the compound, how does the logD [1] read?
Answer: Its logD is 1.7.

Question: With `Cc1ccc2[nH]c(C(=O)N[C@H]3CN(S(=O)(=O)c4cnccn4)C[C@@H]3C(=O)NCCN(C)C)cc2c1` as the compound, how does the logD [1] read?
Answer: The logD was 1.

Question: With `Cc1ccc2[nH]c(C(=O)N[C@H]3CCN(S(=O)(=O)N4CCCCC4)C[C@@H]3C(=O)NCCN(C)C)cc2c1` as the compound, how does the logD [1] read?
Answer: Its logD is 2.3.

Question: For `Cc1ccc2[nH]c(C(=O)N[C@H]3CN(S(=O)(=O)c4ccccc4)C[C@@H]3C(=O)NCCN(C)C)cc2c1`, which logD [1] is on record?
Answer: The logD was 2.1.

Question: What does the source list for `Cc1ccc2[nH]c(C(=O)N[C@H]3CCN(S(=O)(=O)c4ccccc4Cl)C[C@@H]3C(=O)N[C@H]3CCCNC3)cc2c1`?
Answer: logD [1]: 1.9; Papp A→B [2]: < 0.01 ×10⁻⁶ cm/s; Papp B→A [3]: 1.4 ×10⁻⁶ cm/s

Question: Which logD [1] does the source give for `O=C(N[C@H]1CN(S(=O)(=O)c2ccccc2)C[C@@H]1C(=O)N[C@H]1CCCNC1)c1cc(-c2ccccc2Cl)on1` here?
Answer: Its logD is 1.9.

Question: What about the Papp A→B [2] of the same compound?
Answer: Its Papp A→B is 0.31 ×10⁻⁶ cm/s.

Question: And the Vd [4]?
Answer: Its Vd is 5.5 L/kg.

Question: What about the bioavailability [5] of the same compound?
Answer: The bioavailability was under 1%.

Question: And the Vd [6]?
Answer: The Vd was 6.6 L/kg.

Question: And the bioavailability [7]?
Answer: Its bioavailability is 40%.

Question: What about the Drug absorption [8] of the same compound?
Answer: Its Drug absorption is “Not Active”.

Question: What about the Drug absorption [9] of the same compound?
Answer: The Drug absorption was “Not Active”.

Question: And the Drug absorption [10]?
Answer: Its Drug absorption is “Not Active”.

Question: And the Papp [11]?
Answer: Its Papp is under 1 ×10⁻⁶ cm/s.

Question: And the Papp [12]?
Answer: Its Papp is under 1 ×10⁻⁶ cm/s.

Question: For `Cc1ccc2[nH]c(C(=O)N[C@H]3CN(S(=O)(=O)c4ccccc4)C[C@@H]3C(=O)N[C@H]3CCCN(C)C3)cc2c1`, which logD [1] is on record?
Answer: The logD was 2.7.

Question: What about the Papp A→B [2] of the same compound?
Answer: Its Papp A→B is 0.3 ×10⁻⁶ cm/s.

Question: What about the Papp B→A [3] of the same compound?
Answer: The Papp B→A was 16.3 ×10⁻⁶ cm/s.

Question: Which logD [1] does the source give for `Cc1ccc2[nH]c(C(=O)N[C@H]3Cc4ccccc4[C@@H]3C(=O)NCCN(C)C)cc2c1` here?
Answer: Its logD is 2.4.

Question: Which logD [1] does the source give for `Cc1ccc2[nH]c(C(=O)N[C@H]3CN(S(=O)(=O)C4CCOCC4)C[C@@H]3C(=O)NCCN(C)C)cc2c1` here?
Answer: Its logD is 1.

Question: With `Cc1ccc2[nH]c(C(=O)N[C@H]3CN(S(=O)(=O)c4ccccc4)C[C@@H]3C(=O)N[C@@H]3CCCN(C)C3)cc2c1` as the compound, how does the logD [1] read?
Answer: Its logD is 2.7.

Question: What about the Papp A→B [2] of the same compound?
Answer: The Papp A→B was 0.76 ×10⁻⁶ cm/s.

Question: And the Papp B→A [3]?
Answer: The Papp B→A was 22.8 ×10⁻⁶ cm/s.

Question: Which logD [1] does the source give for `Cc1ccc2[nH]c(C(=O)N[C@H]3CCN(S(=O)(=O)N(C)C)C[C@@H]3C(=O)NCCN(C)C)cc2c1` here?
Answer: The logD was 1.2.

Question: For `Cc1ccc2[nH]c(C(=O)N[C@H]3CCN(S(=O)(=O)c4ccccc4Cl)C[C@@H]3C(=O)N[C@H]3CCCN(C)C3)cc2c1`, which logD [1] is on record?
Answer: Its logD is 3.1.

Question: What about the Papp A→B [2] of the same compound?
Answer: The Papp A→B was 0.27 ×10⁻⁶ cm/s.

Question: And the Papp B→A [3]?
Answer: Its Papp B→A is 15.9 ×10⁻⁶ cm/s.

Question: For `Cc1ccc2[nH]c(C(=O)N[C@H]3CN(S(=O)(=O)c4cccnc4)C[C@@H]3C(=O)NCCN(C)C)cc2c1`, which logD [1] is on record?
Answer: Its logD is 1.4.

Question: For `Cc1ccc2[nH]c(C(=O)N[C@H]3CN(S(=O)(=O)c4cn(C)nc4C)C[C@@H]3C(=O)NCCN(C)C)cc2c1`, which logD [1] is on record?
Answer: The logD was 1.4.

Question: Which logD [1] does the source give for `Cc1ccc2[nH]c(C(=O)N[C@H]3CN(S(=O)(=O)c4ccccc4)C[C@@H]3C(=O)NC[C@H]3CCCN3C)cc2c1` here?
Answer: The logD was 2.3.

Question: What about the Papp A→B [2] of the same compound?
Answer: The Papp A→B was 0.08 ×10⁻⁶ cm/s.

Question: What about the Papp B→A [3] of the same compound?
Answer: The Papp B→A was 2.7 ×10⁻⁶ cm/s.

Question: For `Cc1ccc2[nH]c(C(=O)N[C@H]3CN(S(=O)(=O)c4ccccc4)C[C@@H]3C(=O)NC[C@H]3CCCN3)cc2c1`, which logD [1] is on record?
Answer: The logD was 1.

Question: What about the Papp A→B [2] of the same compound?
Answer: Its Papp A→B is 0.11 ×10⁻⁶ cm/s.

Question: What about the Papp B→A [3] of the same compound?
Answer: The Papp B→A was 15.9 ×10⁻⁶ cm/s.

Question: With `Cc1csc(C(=O)N[C@H]2CN(S(=O)(=O)c3ccccc3)C[C@@H]2C(=O)N[C@H]2CCCNC2)n1` as the compound, how does the logD [1] read?
Answer: The logD was 0.1.

Question: And the Papp A→B [2]?
Answer: Its Papp A→B is 0.18 ×10⁻⁶ cm/s.

Question: Which logD [1] does the source give for `Cc1ccc2[nH]c(C(=O)N[C@H]3CCN(S(=O)(=O)c4ccccc4)C[C@@H]3C(=O)NCCN(C)C)cc2c1` here?
Answer: The logD was 2.2 to 2.3.

Question: For `Cc1ccc2[nH]c(C(=O)N[C@H]3CN(S(=O)(=O)c4ccccc4)C[C@@H]3C(=O)N[C@H]3CCCNC3)cc2c1`, which logD [1] is on record?
Answer: The logD was 1.3.

Question: What about the Papp A→B [2] of the same compound?
Answer: The Papp A→B was 0.04 ×10⁻⁶ cm/s.

Question: And the Papp B→A [3]?
Answer: Its Papp B→A is 2 ×10⁻⁶ cm/s.

Question: With `Cc1ccc2[nH]c(C(=O)N[C@@H]3CCN(S(=O)(=O)c4ccccc4)C[C@H]3C(=O)NCCN(C)C)cc2c1` as the compound, how does the logD [1] read?
Answer: Its logD is 2.3.

Question: With `Cc1ccc2[nH]c(C(=O)N[C@@H]3CN(S(=O)(=O)c4ccccc4)C[C@H]3C(=O)NCCN(C)C)cc2c1` as the compound, how does the logD [1] read?
Answer: Its logD is 2.1.

Question: With `Cc1ccc2[nH]c(C(=O)N[C@H]3CN(S(=O)(=O)c4ccccc4)C[C@@H]3C(=O)N[C@@H]3CCCNC3)cc2c1` as the compound, how does the logD [1] read?
Answer: The logD was 1.3.

Question: What about the Papp A→B [2] of the same compound?
Answer: The Papp A→B was 0.04 ×10⁻⁶ cm/s.

Question: What about the Papp B→A [3] of the same compound?
Answer: Its Papp B→A is 1.6 ×10⁻⁶ cm/s.

Question: For `Cc1ccc2[nH]c(C(=O)N[C@H]3CCN(S(=O)(=O)C4CC4)C[C@@H]3C(=O)NCCN(C)C)cc2c1`, which logD [1] is on record?
Answer: Its logD is 1.

Question: For `Cc1ccc2[nH]c(C(=O)N[C@H]3CCN(S(=O)(=O)N4CCOCC4)C[C@@H]3C(=O)NCCN(C)C)cc2c1` (racemic), which logD [1] is on record?
Answer: Its logD is 1.

Question: Which logD [1] does the source give for `Cc1ccc2[nH]c(C(=O)N[C@H]3CCN(S(=O)(=O)c4cccnc4)C[C@@H]3C(=O)NCCN(C)C)cc2c1` (racemic) here?
Answer: Its logD is 1.3.

Question: Which logD [1] does the source give for `Cc1ccc2[nH]c(C(=O)N[C@H]3CCN(C(=O)c4cccnc4)C[C@@H]3C(=O)NCCN(C)C)cc2c1` (racemic) here?
Answer: Its logD is 0.7.

Question: For `Cc1ccc2[nH]c(C(=O)N[C@H]3CN(S(=O)(=O)c4ccccc4)C[C@H]3C(=O)NCCN(C)C)cc2c1` (racemic), which logD [1] is on record?
Answer: The logD was 2.3.

Question: For `Cc1ccc2[nH]c(C(=O)N[C@H]3CN(S(=O)(=O)c4ccccc4)CC[C@H]3C(=O)NCCN(C)C)cc2c1` (racemic), which logD [1] is on record?
Answer: Its logD is 1.9.

Question: With `Cc1ccc2[nH]c(C(=O)N[C@@H]3CCN(S(=O)(=O)c4ccccc4)C[C@@H]3C(=O)NCCN(C)C)cc2c1` (racemic) as the compound, how does the logD [1] read?
Answer: The logD was 2.1.

Question: For `Cc1ccc2[nH]c(C(=O)N[C@H]3CN(S(=O)(=O)c4ccccc4)CC[C@@H]3C(=O)NCCN(C)C)cc2c1` (racemic), which logD [1] is on record?
Answer: The logD was 1.9.
